Results taken from PMC10056899, “Neuroprotective and Antiherpetic Properties of Polyphenolic Compounds from Maackia amurensis Heartwood” (Molecules, 2023).
Several values for one entry are separate records, joined by “and”; a condition that tells them apart may be missing. Identical values can stand only once.

What was measured:
[1] = Ferric reducing antioxidant power (FRAP) assay; conditions: 4 min, pH 3.6
Procedure: The FRAP assay was carried out as described in [41]. We prepared FRAP reagent by mixing 2.5 mL of TPTZ (2,4,6-tris(2-pyridyl)-s-triazine) solution (10 mM) in 40 mM HCl and […] of FeCl3 solution (20 mM) in acetate buffer solution (300 mM, pH 3.6). Then, we added stilbenes 1–6 to 3 mL of FRAP reagent at concentrations from 1 to 34 µM. The mixture was kept in the dark at room temperature for 4 min. Then, we measured the absorbance at 595 nm using a Shimadzu UV 1240 spectrophotometer. Equation (2) was used to calculate the FRAP values of stilbenes 1–6:(2) FRAP=CFe/Cx, where: • CFe is the concentration of Fe^2+ (µM) formed in the reaction; • Cx is the concentration of polyphenolic compounds in the reacting mixture.
The concentration of Fe^2+ (µM) formed in the reaction was determined using the calibration curve obtained for different concentrations of FeSO4·7H2O.

[2] = test system: PQ-treated Neuro-2a cells; experiment: Intracellular ROS level in PQ-treated cells (H2DCF-DA); assay type: cell-based, murine; conditions: Mus musculus, N2a, 0.1 μM (minimum studied concentration), PQ 1 mM
Procedure: After 24 h of adhesion, Neuro-2a cells (1 × 10^4 cells/well) were incubated with stilbenes (0.01–10 µM) for 1 h. After that, we added PQ (1 mM) to each well and incubated the cells for 3 h. To study ROS formation, we added 20 µL of 2,7-dichlorodihydrofluorescein diacetate solution ([…], H2DCF-DA, Molecular Probes, Eugene, OR, USA) to each well, so that the concentration was 10 µM, and kept the microplate in a CO2–incubator for additional 30 min at 37 °C.

[3] = test system: PQ-treated Neuro-2a cells; experiment: Mitochondrial membrane potential in PQ-treated cells (TMRM); assay type: cell-based, murine; conditions: 0.1 μM
Procedure: […] Then, we added PQ (500 μM) and kept the cell suspension in a CO2-incubator for 1 h. Cells incubated without PQ and stilbenes and with PQ only were used as positive and negative control, respectively. We added the tetramethylrhodamine methyl (TMRM) (Sigma-Aldrich, St. Louis, MO, USA) solution (500 nM) to each well and kept the cells for 30 min in a CO2-incubator at 37 °C. The intensity of fluorescence was measured with a PHERAstar […] reader (BMG Labtech, Ortenberg, Germany) at λex = 540 nm and λem = 590 nm. We processed the data by MARS Data Analysis v. 3.01R2 (BMG Labtech, Ortenberg, Germany) and presented the results as percentages of the positive control value.

HSV-1 = experiment: Anti-HSV-1 activity, cytopathic effect (CPE) inhibition assay in Vero cells; assay type: cell-based, HSV-1 strain L2
Procedure: (§1) The HSV-1 strain L2 and Vero cell culture (kidney epithelial cells of the African green monkey Chlorocebus sp.) were obtained from the N.F. Gamaleya Federal Research Centre for Epidemiology and Microbiology (Moscow, Russia). HSV-1 was grown in Vero cells, using Dulbecco′s Modified Eagle′s Medium (DMEM, Biolot, St. Petersburg, Russia) supplemented with 10% fetal bovine serum (FBS, Biolot, St. Petersburg, Russia) and 100 U/mL of gentamycin (Dalkhimpharm, Khabarovsk, Russia), at 37 °C in a CO2 incubator. In the maintenance medium, the FBS concentration was decreased to 1%.
(§2) The tested compounds were dissolved in DMSO (Sigma, St. Louis, MO, USA) at a concentration 10 mg/mL and stored at −20 °C. For cytotoxicity and anti-HSV-1 activity determination, the stock solutions were diluted with DMEM so that the final concentration of DMSO was 0.5%.
The anti-HSV-1 activity of stilbenes was evaluated using cytopathic effect (CPE) inhibition assay in Vero cells. We infected the monolayer of cells grown in 96-well plates (1 × 10^4 cells/well) with 100 µL/well of virus suspension (100 TCD50/mL) and we simultaneously treated it with stilbenes 1–6 (100 µL/well) at various concentrations (from 1 to 400 μg/mL) for one hour at 37 ◦C. After virus absorption, we removed the mixture of virus and stilbenes, washed the cells, and added the maintenance medium with 1% FBS. […] We used MTT assay to evaluate the antiviral activity of stilbenes. The viral inhibition rate (IR, %) was calculated according to Equation (3):(3) IR, %=Atv−Acv/Acd−Acv×100, where: • Atv is the absorbance of cells infected with virus and treated with a polyphenolic compound; • Acv is the absorbance of the untreated virus-infected cells; • Acd is the absorbance of control (untreated and non-infected) cells.
The selectivity index (SI) was calculated as the ratio of CC50 to IC50. Experiments were repeated three times.

[4] = DPPH radical scavenging assay; conditions: 20 min
Procedure: The DPPH (2,2-diphenyl-1-picrylhydrazyl) scavenging effect of polyphenolic compounds 1-6 from M. amurensis heartwood was evaluated as described previously in [40]. Stilbenes were added to DPPH solution in MeOH (10^−4 M) at a concentration range from 1 to 34 µM. The mixture was kept in the dark at room temperature for 20 min. Then, we measured the absorbance at 517 nm using a Shimadzu UV 1240 spectrophotometer (Shimadzu, Kyoto, Japan). The DPPH radical-scavenging effect (%) of the stilbenes was calculated using Equation (1): (1) DPPH scavenging effect, %=A0−Ax/A0×100, where: • A0 is the absorbance of DPPH solution without polyphenolic compounds (blank sample); • Ax is the absorbance of DPPH solution in the presence of different concentrations of polyphenolic compounds.
Quercetin and ascorbic acid were used as reference compounds. All experiments were performed in triplicate. The half maximal inhibitory concentration (IC50) for polyphenolic compounds was calculated by plotting the DPPH scavenging effect (%) against the concentrations of polyphenolic compounds. IC50 values are given as the mean ± SEM.

[5] = Cytotoxicity against Vero cells (MTT assay); assay type: cell-based; conditions: African green monkey (Chlorocebus sp.)
Procedure: as §1, §2
The cytotoxicity evaluation of the studied compounds was performed using the MTT assay, as described previously. In brief, confluent Vero cells in 96-well microplates (1 × 10^4 cells/well) were incubated with tested compounds at various concentrations (1–500 μg/mL) at 37 °C for 48 h (5% CO2). Untreated cells were used as controls. Then, MTT solution (methylthiazolyltetrazolium bromide, Sigma, St. Louis, MO, USA) was added to cells at a concentration of 5 mg/mL and the cells were incubated at 37 °C for 2 h. After dissolution of formazan crystals, optical densities were read at 540 nm (Labsystems Multiskan RC, Vantaa, Finland). […] [42]. Experiments were performed in triplicate and repeated three times.

[6] = Cytotoxic activity against Neuro-2a cells (MTT assay); assay type: cell-based, murine; conditions: mouse, Neuro-2a neuroblastoma cells, data not shown, read-out: EC50 of cell viability reduction (cytotoxic activity)
Procedure: We purchased the murine neuroblastoma cell line Neuro-2a (CCL-131) from the American Type Culture Collection (ATCC®) (Manassas, VA, USA). We cultured Neuro-2a cells in Dulbecco′s Modified Eagle Medium (Biolot, St. Petersburg, Russia), which contained 10% fetal bovine serum (Biolot, St. Petersburg, Russia) and 1% penicillin/streptomycin (Biolot, St. Petersburg, Russia). We incubated the cells at 37 °C in a humidified atmosphere containing 5% (v/v) CO2.
We prepared the stock solutions of stilbenes in DMSO at a concentration of 10 mM. Compounds 1–6 were added to the wells of the plates in a volume of 20 μL diluted in PBS at the following final concentrations: 0.1, 1.0, and 10.0 µM (final concentration of DMSO <1%).
Neuro-2a cells (1 × 10^4 cells/well) were kept in a CO2 incubator at 37 °C for 24 h until they formed an adherent monolayer. Then, 20 μL of stilbenes solution was added to the cells. After incubation for 24 h, the medium containing the stilbenes was replaced by 100 μL of fresh DMEM medium. Then, we added 10 μL of MTT (3-(4,5-dimethylthiazol-2-yl)-2,5-diphenyltetrazolium bromide) (Sigma-Aldrich, St. Louis, MO, USA) stock solution (5 mg/mL) to each well and incubated the microplate for 4 h. […] After incubation for 18 h, we measured the absorbance of the converted dye formazan on a Multiskan FC microplate photometer (Thermo Scientific, Waltham, MA, USA) at a wavelength of 570 nm. […]

Oc1cc(O)cc(/C=C/c2ccc3c(c2)O[C@H](c2cc(O)cc(O)c2)[C@@H](c2ccc(O)c(O)c2)O3)c1 [Compound 3, maackin]
FRAP CFe2+(µM)/Cpolyphenolic compound (µM) [1]: 10.11 ± 0.93 CFe2+(µM)/Cpolyphenolic compound (µM) | FRAP CFe2+(µM)/Cpolyphenolic compound (μkg/mL) [1]: 20.80 ± 1.91 CFe2+(µM)/Cpolyphenolic compound (μkg/mL) | inhibition at 0.1 µM [2]: 17% | Increase of mitochondrial membrane potential compared to PQ-treated cells [3]: 16% | IC50 (HSV-1; Human alphaherpesvirus 1, Vero, read-out: IC50 (CPE assay)): 17.6 µg/mL and 36.2 µM | SI = CC50/IC50 (HSV-1; Vero cells, HSV-1): 15.3 ± 1.9 | DPPH Scavenging Effect IC50 [4]: 1.31 ± 0.15 µg | IC50 ([4]; read-out: DPPH Scavenging Effect IC50): 2.7 ± 0.3 µM | CC50 at 48 h [5]: 270 µg/mL and 555 µM | EC50 at 24 h [6]: 87.7 µM
